# Assay results reported in publication PMC11530827, “Characterization of a cytochrome P450 that catalyzes the O-demethylation of lignin-derived benzoates” (The Journal of Biological Chemistry, 2024).
# Like-named read-outs stand apart in the source and are kept apart here.
# B1: PbdA (Rhodococcus jostii RHA1) (protein)
# chain: MFAPAPALPVSDADPFALDVLQDPLPFQANLRDAGPVVYLRRYDVFALGRYEQVHAALTDWQSFQSAAGVGLSNFRYETPWRPPSILLEADPPHHDAPRAVLSKILGPRALQKLRAAWIQDAEALVDQLLANTTEFDAVTDLAAAFPLRVFPDAVGIPDAGRENLLPYGDHAFNAFGPANGLVEKGAPRVAELSGWVNAQCARDALTGDGFGAQIWAAADRGDITYEQAPLVVRSLLTAGVDTTVNGLAAVLYAFATHPDQWARLRENRTLARTAFDEAVRWESPVQTFFRTATRDTEIGGATIPDGKKILMFLGAANRDPRRWENPEVFDLGRNPSGHVGYGMGIHQCVGQHVARLESEALLTALASRVHSLEIAGPVHRHLNNTLRSWESVPVKVRLP
# Experiments:
# [1] = biological target: T1, PbdA S87A (Rhodococcus jostii, UniProt Q0SCI3, S85A); assay: Substrate binding to PbdA S87A variant by spectral titration; set-up: species or system Rhodococcus jostii RHA1
# T1 construct: hexaHis (N, cleaved yes); made in house; host or cells: PbdA variant: E. coli BL-21 λ (DE3); PbdB: Rhodococcus jostii RHA1
# Method: (§1) UV-visible spectroscopy was conducted with a Cary 60 spectrophotometer equipped with a thermostatted cuvette holder at 25 °C. Scans of purified proteins diluted in 20 mM Mops, I = 0.1 M, pH 7.2 were taken between 250 and 700 nm. Heme concentration was calculated as described previously ([35]). Carbon monoxide binding was determined by reduction of PbdA diluted in 20 mM Mops, I = 0.1 M, pH 7.2 as above by a few grains of […]. CO was bubbled into the reduced enzyme for approximately 60 s at a rate of one bubble per second. Dissociation constants (Kd) were determined by titration of ligands diluted into enzyme buffer from 1 M stocks prepared in dimethyl sulfoxide into PbdA diluted in 20 mM Mops, I = 0.1 M, pH 7.2. Spectra take upon addition of substrate were subtracted from the spectrum of the enzyme, and peak-to-trough distance was plotted by ligand concentration. Kd values were determined by fitting a hyperbolic equation to the data as described previously ([23], [36]). The proportion of high-spin heme iron was determined using the approximate peak-to-trough extinction coefficient (ε ≈ 100 mM^−1 cm^−1) ([36]).
# [2] = biological target: T2, PbdA S87A/S237A (Rhodococcus jostii, UniProt Q0SCI3, S235A/S85A); assay: Substrate binding to PbdA S87A/S237A variant by spectral titration; set-up: species or system Rhodococcus jostii RHA1
# T2 construct: hexaHis (N, cleaved yes); made in house; host or cells: PbdA variant: E. coli BL-21 λ (DE3); PbdB: Rhodococcus jostii RHA1
# Method: as §1
# [3] = tested on: CYP199A4; set-up: method as in PMID 26969786; details: cited from earlier work
# [4] = biological target: T3, PbdA S237A (Rhodococcus jostii, UniProt Q0SCI3, S235A); assay: Substrate binding to PbdA S237A variant by spectral titration; set-up: species or system Rhodococcus jostii RHA1
# T3 construct: hexaHis (N, cleaved yes); made in house; host or cells: PbdA variant: E. coli BL-21 λ (DE3); PbdB: Rhodococcus jostii RHA1
# Method: as §1
# [5] = biological target: T1, PbdA S87A; assay: Activity and coupling assay of PbdA S87A variant with PbdB; format: biochemical, Rhodococcus jostii RHA1; details: for NADH depletion rate: air-saturated MOPS (I = 0.1 M), pH 7.2, 25 °C
# Method: (§2) For activity measurements 0.25 to 1 μM of PbdA and PbdB were combined in a 200 μl cuvette in 20 mM Mops, pH 7.2 with substrate diluted in the same buffer. NADH was added to 350 μM to initiate the reaction. For HPLC analysis, enzymatic reactions were acidified by adding acetic acid to 10% final concentration, centrifuged (16,000×g for 10 min), and filtered through a 0.2 μm polytetrafluoroethylene membrane. Samples were run over a Luna 5 μm C18(2) 100 Å 150 × 3 mm column (Phenomenex) at 0.7 ml min^−1 by a Waters 2695 separation HPLC module. Samples were eluted with a 16.8 ml linear gradient from 1% methanol plus 0.1% formic acid in water to 100% methanol plus 0.1% formic acid and monitored at 280 nm with a Waters 2996 photodiode array detector. Concentrations were determined by interpolation on a standard curve of 0 to 1 mM of authentic standard. NADH concentration was measured by absorbance at 340 nm, ε = 6.22 mM^-1 cm^-1. Coupling was calculated from the ratio of rate of aromatic turnover, as determined by HPLC, and the rate of NADH oxidation, determined spectroscopically. Buffer ionic strength was adjusted by addition of NaCl, as appropriate. Apparent steady-state kinetic parameters were calculated by fitting Michaelis–Menten equations to initial velocity of reactions at various concentrations of aromatic substrate (LEONORA).
# (§3) ^aExperiments were performed using air-saturated MOPS (I = 0.1 M), pH 7.2, at 25 °C. The rate of aromatic substrate turnover was based on the appearance of O-demethylated product. Standard deviation is shown in parentheses.
# [6] = biological target: T3, PbdA S237A; assay: Activity and coupling assay of PbdA S237A variant with PbdB; format: biochemical, Rhodococcus jostii RHA1; details: for NADH depletion rate: air-saturated MOPS (I = 0.1 M), pH 7.2, 25 °C
# Method: as §2, §3
# [7] = biological target: T4, PbdA R84M (Rhodococcus jostii, UniProt Q0SCI3, R82M); assay: Activity and coupling assay of PbdA R84M variant with PbdB; format: biochemical, Rhodococcus jostii RHA1; details: air-saturated MOPS (I = 0.1 M), pH 7.2, 25 °C
# T4 construct: hexaHis (N, cleaved yes); made in house; host or cells: PbdA variant: E. coli BL-21 λ (DE3); PbdB: Rhodococcus jostii RHA1
# Method: as §2, §3
# [8] = biological target: T4, PbdA R84M; assay: Substrate binding to PbdA R84M variant by spectral titration; set-up: species or system Rhodococcus jostii RHA1
# Method: as §1
# [9] = biological target: T2, PbdA S87A/S237A; assay: Activity and coupling assay of PbdA S87A/S237A variant with PbdB; format: biochemical, Rhodococcus jostii RHA1; details: for NADH depletion rate: air-saturated MOPS (I = 0.1 M), pH 7.2, 25 °C
# Method: as §2, §3
# [10] = biological target: T5, PbdA (Rhodococcus jostii, UniProt Q0SCI3); assay: Substrate binding to PbdA (WT) by type I spectral shift titration; set-up: hexaHis (N, cleaved yes); made in house; host or cells: PbdA: E. coli BL-21 λ (DE3); PbdB: Rhodococcus jostii RHA1; details: for %High-spin (percent of heme iron in high-spin state): on substrate binding
# T5 sequence (Q0SCI3 1-400): B1 chain
# Method: The affinity of PbdA for various LDACs was measured by the type I spectral shift upon titration of aromatic compound (Fig. 2). This shift occurs as the compound displaces a water coordinated to the heme iron, initiating a spin state transition in the latter from a low spin, hexacoordinate, to a high spin, pentacoordinate form.
# Figure 2 Substrate binding of PbdA. A, difference spectra of PbdA titrated with 1 to 50 μM p-MBA from the substrate-free enzyme. Darker colors indicate higher concentration of p-MBA. Spectra were collected after each addition of substrate to 1 μM enzyme in 20 mM Mops, I = 0.1 M, pH 7.2. B, binding isotherm of PbdA and p-MBA. The fitted curve represents a simple hyperbola. p-MBA, para-methoxybenzoate.
# as §1
# [11] = biological target: T5, PbdA; details: for NADH depletion rate / Rate of Aromatic turnover / Coupling: WT PbdAB; for NADH depletion rate: air-saturated MOPS (I = 0.1 M); for Rate of Aromatic turnover: appearance of O-demethylated product (disappearance of p-EB); for Coupling: ratio of aromatic turnover rate to NADH oxidation rate
# Method: We then measured coupling under optimum conditions for other substrates. […] Finally, we measured the apparent steady-state kinetic parameters of the PbdA reaction under conditions of maximal coupling (Fig. S4).
# as §2
# [12] = tested on: RHA1; assay: Growth of RHA1 on p-EB; format: cell-based, Rhodococcus jostii RHA1; details: M9G with up to 5 mM p-EB; OD600 after 48 hours
# Method: RHA1 was grown in M9 media supplemented with a mixture trace metals […]) ([37]) and growth substrate. Growth substrates were solubilized in dimethyl sulfoxide and added to the media. For the growth on p-EB experiment, RHA1 was grown in 1 ml […] supplemented with 5 mM benzoate for 1 day shaking at 30 °C. The cells were spun harvested and washed twice with […] and added to 3 ml […] containing p-EB or benzoate at a final OD600 of 0.05. OD600 of 150 μl culture in a 96-well plate was measured by a TECAN Spark microplate reader. […] When OD600 reached 0.6, cells were harvested, washed twice in […] and suspended in 50 ml of […] 1 mM p-EB. After 4 h of incubation, cell supernatant was collected for LC-MS analysis. Figure S6: Growth of RHA1 on p-EB. Growth of WT in […] supplemented with up to 5 mM of p-EB or 5 mM benzoate. OD600 was measured after 48 hours incubation.
# [13] = tested on: CYP199A2; set-up: method as in PMID 20024082; details: cited from earlier work
# [14] = substrate: COc1ccc(C(=O)O)cc1O; assay: purified protein, by the assay type; details: other: WT PbdA with PbdB, air-saturated Mops (I = 0.1 M), pH 7.2, 25 °C, SD in parentheses
# [15] = appearance of O-demethylated product
# [16] = pH 7.2, 25 °C, SD in parentheses
# [17] = WT PbdA, 20 mM Mops, I = 0.1 M, pH 7.2, 25 °C, SD in parentheses, read-out: Kd
# T4 sequence (Q0SCI3 entry or part of it R82M): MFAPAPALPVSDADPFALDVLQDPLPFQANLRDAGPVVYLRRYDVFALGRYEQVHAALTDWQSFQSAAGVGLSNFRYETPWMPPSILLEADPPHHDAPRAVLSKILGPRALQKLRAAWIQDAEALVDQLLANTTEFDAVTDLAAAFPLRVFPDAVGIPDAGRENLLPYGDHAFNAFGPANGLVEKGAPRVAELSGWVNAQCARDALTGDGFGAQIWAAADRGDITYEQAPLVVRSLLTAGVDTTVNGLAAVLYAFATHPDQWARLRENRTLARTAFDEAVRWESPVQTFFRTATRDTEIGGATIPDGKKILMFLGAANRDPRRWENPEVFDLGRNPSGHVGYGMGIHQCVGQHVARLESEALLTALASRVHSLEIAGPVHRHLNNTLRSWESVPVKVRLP
# T3 sequence (Q0SCI3 entry or part of it S235A): as the sequence (Q0SCI3 entry or part of it R82M) above, with M82R, S235A counted along it
# T1 sequence (Q0SCI3 entry or part of it S85A): as the sequence (Q0SCI3 entry or part of it R82M) above, with M82R, S85A counted along it
# T2 sequence (Q0SCI3 entry or part of it S85A/S235A): as the sequence (Q0SCI3 entry or part of it R82M) above, with M82R, S85A, S235A counted along it
Molecule,Kd [1] [µM],Kd [2] [µM],O-demethylation rate relative to that of p-MBA [3] [%],Kd [4] [µM],NADH depletion rate [5],NADH depletion rate [6],NADH depletion rate [7],Kd [8] [µM],NADH depletion rate [9],Kd [10] [µM],%High-spin (percent of heme iron in high-spin state) ([10]; WT PbdA) [%],"NADH depletion rate [11, 16]",Rate of Aromatic turnover ([11]; SD in parentheses),"Kd [10, 17] [µM]",Coupling [11],further results
"COc1ccc(C=O)cc1 [p-MBAL, p-methoxybenzaldehyde]",16,8,0.1,12,290 (20) U mg P450^-1,300 (50) U mg P450^-1,170 (10) U mg P450^-1,7,200 (4) U mg P450^-1,11,7.9,140 (30) U mg P450^-1,did not detectably O-demethylate,–,–,"Coupling [5]: 27 (7) %; Specific activity ([5]; O-demethylation): 80 (30) U μg P450^-1; Rate of Aromatic turnover [5, 15]: 80 (30) U mg P450^-1; Coupling [6]: 9 (3) %; Specific activity ([6]; O-demethylation): 27 (2) U μg P450^-1; Rate of Aromatic turnover [6, 15]: 30 (3) U mg P450^-1; Coupling [9]: 90 (20) %; Specific activity ([9]; O-demethylation): 180 (20) U μg P450^-1; Rate of Aromatic turnover [9, 15]: 180 (40) U mg P450^-1"
"COc1ccc(C(=O)O)cc1O [Isovanillate, isovanillate]",–,–,–,–,–,–,–,–,–,–,94,2200 (200) U mg P450^-1,1600 (100) U mg P450^-1,90,75.3 (0.1) %,Coupling ([11]; listed as isovanillate): approximately 75%
"CCc1ccc(C(=O)O)cc1 [p-EB, p-ethylbenzoate]",–,–,–,–,–,–,–,–,–,–,72,830 (80) U mg P450^-1,900 (100) U mg P450^-1,6,110 (7) %,"Growth of RHA1 on the compound as substrate [12]: did not grow; kcat (apparent) ([11]; WT PbdA with PbdB, air-saturated Mops (I = 0.1 M), pH 7.2, 25 °C, SD in parentheses): 0.14 (0.01) s^−1; Km ([11]; read-out: KM (apparent), WT PbdA with PbdB, air-saturated Mops (I = 0.1 M), pH 7.2, 25 °C, SD in parentheses): 12 µM"
"COc1ccc(C(=O)O)cc1OC [Veratrate, veratrate]",–,–,–,–,–,–,–,–,–,18,84,2830 (50) U mg P450^-1,2030 (60) U mg P450^-1,–,72 (3) %,Turnover of substrate [13]: did not detectibly turn over; Coupling ([11]; listed as veratrate): approximately 75%
"COc1ccc(C(C)=O)cc1 [p-MAP, p-methoxyacetophenone]",14,8,0.25,12,265 (7) U mg P450^-1,220 (6) U mg P450^-1,170 (30) U mg P450^-1,8,160 (30) U mg P450^-1,–,2.8,117 (6) U mg P450^-1,did not detectably O-demethylate,37,–,–
B1,–,–,–,–,–,–,–,–,–,–,–,–,–,–,–,Km [14]: 30 (10) μM; kcat [14]: 0.15 s⁻¹; kcat/Km [14]: 5000 M⁻¹ s⁻¹
